Data set [1] relates to O=C(N/N=C/c1ccc(O)cc1)c1csc(Nc2ccc([N+](=O)[O-])cc2)n1. In words: (§1) Uncompetitive inhibition of alpha-amylase (unknown origin) using starch as substrate assessed as decrease in Vmax incubated for 30 mins by UV-visible spectrophotometric analysis. To be noted: Homo sapiens.
The test system of data set [2] is COc1cc(/C=N/NC(=O)c2csc(Nc3ccc([N+](=O)[O-])cc3)n2)cc(OC)c1OC. Described as §1. Conditions: Homo sapiens.
Data set [3] deals with COc1cc(/C=N/NC(=O)c2csc(Nc3ccc([N+](=O)[O-])cc3)n2)ccc1O. The description is as §1. To be noted: Homo sapiens.
The subject of data set [4] is O=C(N/N=C/c1ccc(Cl)cc1)c1csc(Nc2ccc([N+](=O)[O-])cc2)n1. Described as §1. To be noted: Homo sapiens.
Data set [5] has as its system O=C(N/N=C/c1ccc(O)cc1)c1csc(Nc2ccc([N+](=O)[O-])cc2)n1. In words: (§2) Uncompetitive inhibition of alpha-amylase (unknown origin) using starch as substrate assessed as decrease in Km incubated for 30 mins by UV-visible spectrophotometric analysis. To be noted: Homo sapiens.
Data set [6] deals with COc1cc(/C=N/NC(=O)c2csc(Nc3ccc([N+](=O)[O-])cc3)n2)cc(OC)c1OC. Described as §2. Conditions: Homo sapiens.
The subject of data set [7] is COc1cc(/C=N/NC(=O)c2csc(Nc3ccc([N+](=O)[O-])cc3)n2)ccc1O. The description is as §2. Conditions: Homo sapiens.
Data set [8] relates to O=C(N/N=C/c1ccc(Cl)cc1)c1csc(Nc2ccc([N+](=O)[O-])cc2)n1. The data set is described as §2. To be noted: Homo sapiens.
Data set [9] has as its target T1, Alpha amylase (Homo sapiens, UniProt P0DUB6).
T1 sequence (P0DUB6 whole entry): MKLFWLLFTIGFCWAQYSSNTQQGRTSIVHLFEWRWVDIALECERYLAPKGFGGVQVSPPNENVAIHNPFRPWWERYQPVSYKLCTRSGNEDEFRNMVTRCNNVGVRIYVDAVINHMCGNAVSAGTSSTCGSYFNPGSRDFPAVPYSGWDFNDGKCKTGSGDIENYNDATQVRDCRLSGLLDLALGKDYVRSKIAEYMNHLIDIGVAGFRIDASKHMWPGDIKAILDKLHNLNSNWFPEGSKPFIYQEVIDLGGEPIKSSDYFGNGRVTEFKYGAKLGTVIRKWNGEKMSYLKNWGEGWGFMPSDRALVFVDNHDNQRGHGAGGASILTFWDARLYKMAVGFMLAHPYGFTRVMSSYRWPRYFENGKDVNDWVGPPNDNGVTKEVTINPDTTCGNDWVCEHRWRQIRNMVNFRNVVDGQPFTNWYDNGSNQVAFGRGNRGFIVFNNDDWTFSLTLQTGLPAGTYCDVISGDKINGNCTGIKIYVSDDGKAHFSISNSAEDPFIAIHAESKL
In words: Inhibition of alpha-amylase (unknown origin) using starch as substrate incubated for 30 mins by microplate reader analysis.

Data set [10] concerns MCF-10A. In words: Cytotoxicity against human MCF-10A assessed as reduction in cell viability upto 10 uM incubated for 48 hrs by MTT assay. It is filed as toxicity, cell-based.
Data set [11] concerns the target Alpha amylase (Homo sapiens) (UniProt P0DUB6). In words: Binding affinity to alpha-amylase (unknown origin) assessed as increase in absorption intensity by measuring appearance of new peak at 380 nm at 0.001 M by […].
For data set [12] the target is unchanged. In words: Binding affinity to alpha-amylase (unknown origin) assessed as equilibrium binding constant at a temperature of 278.15 K by fluorescence quenching analysis.
The target is the same in data set [13]. In words: Binding affinity to alpha-amylase (unknown origin) assessed as Stem-Volmer quenching constant at a temperature of 278.15 K by fluorescence quenching analysis.
Data set [14] shares this target. In words: Binding affinity to alpha-amylase (unknown origin) assessed as change in entropy by fluorescence quenching analysis.
The target is the same in data set [15]. In words: Binding affinity to alpha-amylase (unknown origin) assessed as decrease in fluorescence intensity of tyrosine residue by Synchronous fluorescence analysis.
For data set [16], the system named is MDA-MB-231. In words: Antiproliferative activity against human MDA-MB-231 cells assessed as inhibition of cell growth incubated for 48 hrs by MTT assay. Type of data set: functional, cell-based. To be noted: MDA-MB-231, 48 h. (Tetrazolium dyes change colour on reduction, which living cells bring about.)
Data set [17] deals with Alpha amylase (Homo sapiens) (UniProt P0DUB6). In words: Binding affinity to alpha-amylase (unknown origin) assessed as Stem-Volmer quenching constant at a temperature of 283.15 K by fluorescence quenching analysis.
The subject of data set [18] is HCT-116. In words: Antiproliferative activity against human HCT-116 cells assessed as inhibition of cell growth incubated for 48 hrs by MTT assay. It is filed as functional, cell-based. To be noted: HCT-116, 48 h.
Data set [19] concerns the target Alpha amylase (Homo sapiens) (UniProt P0DUB6). In words: Binding affinity to alpha-amylase (unknown origin) assessed as Stem-Volmer quenching constant at a temperature of 310.15 K by fluorescence quenching analysis.
Data set [20] has the same target. In words: Binding affinity to alpha-amylase (unknown origin) assessed as gibb's free energy change ar a temperature of 288.15 K by fluorescence quenching analysis.
The target is the same in data set [21]. In words: Binding affinity to alpha-amylase (unknown origin) assessed as gibb's free energy change ar a temperature of 310.15 K by fluorescence quenching analysis.
Data set [22] shares this target. In words: Binding affinity to alpha-amylase (unknown origin) assessed as increase in intensity of absorption peak at 280 nm by […].
Data set [23] has the same target. In words: Binding affinity to alpha-amylase (unknown origin) assessed as Stem-Volmer quenching constant at a temperature of 288.15 K by fluorescence quenching analysis.
Data set [24] has the same target. In words: Binding affinity to alpha-amylase (unknown origin) assessed as quenching constant at a temperature of 278.15 K by fluorescence quenching analysis.
Data set [25] has the same target. In words: Binding affinity to alpha-amylase (unknown origin) assessed as change in enthalpy by fluorescence quenching analysis.
The target is the same in data set [26]. In words: Binding affinity to alpha-amylase (unknown origin) assessed as quenching constant at a temperature of 288.15 K by fluorescence quenching analysis.
Data set [27] shares this target. In words: Binding affinity to alpha-amylase (unknown origin) assessed as assessed as non-uniform change in fluorescence intensity of tryptophan residue by Synchronous fluorescence analysis.
Data set [28] has the same target. In words: Binding affinity to alpha-amylase (unknown origin) assessed as equilibrium binding constant at a temperature of 288.15 K by fluorescence quenching analysis.
Data set [29] has the same target. In words: Binding affinity to alpha-amylase (unknown origin) assessed as equilibrium binding constant at a temperature of 283.15 K by fluorescence quenching analysis.
Data set [30] shares this target. In words: Binding affinity to alpha-amylase (unknown origin) assessed as gibb's free energy change ar a temperature of 278.15 K by fluorescence quenching analysis.
Data set [31] shares this target. In words: Binding affinity to alpha-amylase (unknown origin) assessed as quenching constant at a temperature of 310.15 K by fluorescence quenching analysis.
In data set [32] the test system is A549. In words: Induction of ROS in human A549 cells at sub IC50 concentration incubated for 24 hrs by H2DCFDA dye based fluorescence assay (reference value: 33.28%). It is filed as functional.
In data set [33] the target is Alpha amylase (Homo sapiens) (UniProt P0DUB6). In words: Binding affinity to alpha-amylase (unknown origin) assessed as quenching constant at a temperature of 283.15 K by fluorescence quenching analysis.
The target is the same in data set [34]. In words: Binding affinity to alpha-amylase (unknown origin) assessed as gibb's free energy change ar a temperature of 283.15 K by fluorescence quenching analysis.
For data set [35] the target is unchanged. In words: Binding affinity to alpha-amylase (unknown origin) assessed as increase in intensity of absorption peak at 285 nm by […].
Data set [36] has the same target. In words: Binding affinity to alpha-amylase (unknown origin) assessed as equilibrium binding constant at a temperature of 310.15 K by fluorescence quenching analysis.
In data set [37] the test system is A549. In words: Antiproliferative activity against human A549 cells assessed as inhibition of cell growth incubated for 48 hrs by MTT assay. Type of data set: functional, cell-based. To be noted: A549, 48 h.
Data set [38] deals with T1, Alpha amylase. In words: Inhibition of alpha-amylase (unknown origin) using starch as substrate preincubated with substrate for 15 mins followed by compound addition and measured after 15 mins by UV-VIS spectrophotometric analysis.
Data set [39] addresses T2, Pancreatic alpha-amylase (Sus scrofa, UniProt P00690).
T2 sequence (P00690 whole entry): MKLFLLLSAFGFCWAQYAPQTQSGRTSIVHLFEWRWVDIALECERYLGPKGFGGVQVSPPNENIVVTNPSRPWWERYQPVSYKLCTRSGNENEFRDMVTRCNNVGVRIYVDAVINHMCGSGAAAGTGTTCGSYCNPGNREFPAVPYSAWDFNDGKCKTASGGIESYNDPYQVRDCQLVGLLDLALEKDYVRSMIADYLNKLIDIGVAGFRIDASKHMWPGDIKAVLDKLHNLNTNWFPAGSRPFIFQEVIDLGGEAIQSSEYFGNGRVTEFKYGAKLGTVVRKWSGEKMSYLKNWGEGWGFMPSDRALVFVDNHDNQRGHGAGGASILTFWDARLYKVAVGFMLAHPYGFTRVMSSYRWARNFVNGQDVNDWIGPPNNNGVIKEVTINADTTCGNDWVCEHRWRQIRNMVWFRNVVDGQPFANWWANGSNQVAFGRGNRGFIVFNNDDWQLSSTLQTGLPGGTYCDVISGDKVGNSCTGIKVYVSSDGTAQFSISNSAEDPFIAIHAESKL
In words: Inhibition of porcine pancreatic alpha-amylase using starch as substrate incubated for 10 mins by absorbance based assay.

Data set [40] addresses T1, Alpha amylase. In words: Inhibition of alpha-amylase (unknown origin) using p-nitrophenylR-D-maltoside as substrate incubated for 30 mins by […].

Activity calls are given as the source filed them. The calls are words filed in the database; no cut-off is given here.

In the case of “Alpha amylase (Homo sapiens) (from UniProt P0DUB6)”, the Vmax (as a rule, the rate approached at saturating substrate) in data set [1] was 0.916 µmol/min; in [2], 3.24 µmol/min; in [3], 1.81 µmol/min; in data set [4], 1.56 µmol/min. The Km (usually the concentration of substrate that gives half-maximal velocity) in data set [5] amounted to 830 µM; in [6] it was 1190 µM; in [7], 1030 µM; in data set [8], 804 µM.
On to `Cc1cccc(-c2nc3scc(-c4cccc([N+](=O)[O-])c4)n3n2)c1`, for which the IC50 (as a rule, the concentration that inhibits the measured activity by half) in data set [9] was determined as 1.1 µM.
`O=C(N/N=C/c1ccc(O)cc1)c1csc(Nc2ccc([N+](=O)[O-])cc2)n1`: the Activity entry in [10] is “Non-Toxic”; in [22] it was “Dose-Dependent Effect”; in data set [32], 64.21%; in data set [35] it was “Dose-Dependent Effect”. For the same compound, the result in data set [11], in data set [15] and in data set [27] was Active. The Kb in data set [12] is 6.32 10^6L/mol; in data set [28], 0.00254 10^6L/mol; in data set [29], 0.102 10^6L/mol; in data set [36], 442000 L/mol. In addition, the KSV is 1.6 10^5L/mol/s in [13], 0.93 10^5L/mol/s in [17], 0.188 10^5L/mol/s in data set [19] and 0.24 10^5L/mol/s in data set [23]. Also, the deltaS in data set [14] was -847 J/mol/K. Moreover, the IC50 was found to be 11.4 µM in data set [16], 8.33 µM in [18], 7.44 µM in data set [37] and 0.23 µM in [38]. Also, the deltaG in [20] is -5.69 kcal/mol; in data set [21], -0.507 kcal/mol; in [30], -7.71 kcal/mol; in data set [34], -6.7 kcal/mol. Moreover, the Kq in data set [24] was 16.8 10^13L/mol/s; in data set [26], 2.46 10^13L/mol/s; in [31], 1.88 10^13L/mol/s; in data set [33], 9.36 10^13L/mol/s. The deltaH in data set [25] is -6.4 kcal/mol.
On to `COc1ccc(CNC(=O)Nc2sc3c(c2C#N)CCCC3)c(OC)c1`, for which the IC50 in [39] was determined as 0.59 µM.
Compound `Fc1cccc(-c2nc3scc(-c4ccc(Br)cc4)n3n2)c1` had an IC50 in data set [9] of 3.2 µM.
For `Cc1ccc(-c2csc(N/N=C(/CSc3nnc4c(n3)[nH]c3ccccc34)c3ccc([N+](=O)[O-])cc3)n2)cc1`, in [40], the IC50 was 1.2 µM.
On the same count and under the same terms, for `O=[N+]([O-])c1ccc(/C(CSc2nnc3c(n2)[nH]c2ccccc23)=N\Nc2nc(-c3ccc([N+](=O)[O-])cc3)co2)cc1` the value was 1.2 µM.

The values are drawn from ChEMBL document CHEMBL5252673, “Development of thiazole-appended novel hydrazones as a new class of α-amylase inhibitors with anticancer assets: an in silico and in vitro approach” (RSC Med Chem, 2023).
